Measured values from ChEMBL document CHEMBL4270552, “4-(Phenoxy) and 4-(benzyloxy)benzamides as potent and selective inhibitors of mono-ADP-ribosyltransferase PARP10/ARTD10” (Eur J Med Chem, 2018).

Columns and labels:
[1] = biological target: Poly [ADP-ribose] polymerase 1 (Homo sapiens, UniProt P09874); assay: Inhibition of N-terminal His-tagged human ARTD1 (1 to 1014 residues) expressed in Escherichia coli Rosetta2 (DE3) using activated DNA as substrate after 1.5 hrs in presence of NAD+
[2] = biological target: T1, Protein mono-ADP-ribosyltransferase PARP10 (Homo sapiens) (UniProt Q53GL7)
T1 sequence (whole entry): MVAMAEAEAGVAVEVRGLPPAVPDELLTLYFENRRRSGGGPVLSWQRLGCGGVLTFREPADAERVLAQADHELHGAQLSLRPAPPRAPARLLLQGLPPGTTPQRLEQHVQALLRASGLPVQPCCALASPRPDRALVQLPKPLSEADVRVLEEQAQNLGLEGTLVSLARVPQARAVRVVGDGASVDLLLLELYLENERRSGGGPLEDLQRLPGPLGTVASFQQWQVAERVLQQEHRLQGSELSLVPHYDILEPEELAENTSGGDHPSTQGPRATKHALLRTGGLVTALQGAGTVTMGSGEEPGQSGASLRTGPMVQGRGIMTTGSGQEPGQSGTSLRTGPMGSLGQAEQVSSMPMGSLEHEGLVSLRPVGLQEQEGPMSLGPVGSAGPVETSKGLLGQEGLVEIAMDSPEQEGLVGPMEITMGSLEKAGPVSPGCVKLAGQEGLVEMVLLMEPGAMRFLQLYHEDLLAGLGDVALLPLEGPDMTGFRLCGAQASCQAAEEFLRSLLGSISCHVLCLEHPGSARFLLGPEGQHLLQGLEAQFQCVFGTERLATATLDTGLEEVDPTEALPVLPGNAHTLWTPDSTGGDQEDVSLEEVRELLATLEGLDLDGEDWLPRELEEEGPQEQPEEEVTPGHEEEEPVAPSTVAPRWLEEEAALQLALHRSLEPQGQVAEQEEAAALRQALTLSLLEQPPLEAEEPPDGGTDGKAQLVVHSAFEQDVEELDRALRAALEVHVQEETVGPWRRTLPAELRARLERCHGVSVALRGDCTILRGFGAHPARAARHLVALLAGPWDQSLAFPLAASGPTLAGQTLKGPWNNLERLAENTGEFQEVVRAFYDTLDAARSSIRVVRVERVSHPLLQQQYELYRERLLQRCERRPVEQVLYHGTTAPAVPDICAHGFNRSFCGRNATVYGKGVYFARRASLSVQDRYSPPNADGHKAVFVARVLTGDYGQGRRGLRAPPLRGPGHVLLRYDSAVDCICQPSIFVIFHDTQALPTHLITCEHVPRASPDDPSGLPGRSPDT
Description: Stabilization of C-terminal His-tagged human ARTD10 (809 to 1017 residues) expressed in Escherichia coli Rosetta2 (DE3) assessed as change in melting temperature at 100 uM by SYPRO Orange-dye based differential scanning fluorimetric method

[3] = biological target: Poly [ADP-ribose] polymerase 2 (Homo sapiens, UniProt Q9UGN5); assay: Inhibition of N-terminal His-tagged thioredoxin-fused human ARTD2 (1 to 583 residues) expressed in Escherichia coli Rosetta2 (DE3) using activated DNA as substrate after 1.5 hrs in presence of NAD+
Poly [ADP-ribose] polymerase 2, sequence (Q9UGN5 whole entry, the tested form may be a part): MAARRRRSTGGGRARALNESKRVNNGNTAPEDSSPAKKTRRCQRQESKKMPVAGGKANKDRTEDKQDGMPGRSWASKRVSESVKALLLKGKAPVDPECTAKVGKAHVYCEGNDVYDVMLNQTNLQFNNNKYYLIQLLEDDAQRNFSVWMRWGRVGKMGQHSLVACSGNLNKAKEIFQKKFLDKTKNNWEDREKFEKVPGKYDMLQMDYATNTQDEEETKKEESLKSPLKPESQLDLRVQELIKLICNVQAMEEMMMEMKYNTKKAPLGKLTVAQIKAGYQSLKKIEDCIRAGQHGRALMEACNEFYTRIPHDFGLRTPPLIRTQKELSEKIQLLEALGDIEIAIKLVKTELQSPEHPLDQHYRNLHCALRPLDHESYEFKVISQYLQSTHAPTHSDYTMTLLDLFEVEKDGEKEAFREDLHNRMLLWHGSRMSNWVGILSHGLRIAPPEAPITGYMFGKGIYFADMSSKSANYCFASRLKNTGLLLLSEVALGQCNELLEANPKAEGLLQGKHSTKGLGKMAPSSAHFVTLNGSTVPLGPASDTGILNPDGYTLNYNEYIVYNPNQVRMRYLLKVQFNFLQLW

[4] = biological target: T2, Protein mono-ADP-ribosyltransferase PARP3 (Homo sapiens, UniProt Q9Y6F1); assay: Inhibition of N-terminal His-tagged thioredoxin-fused human ARTD3 (1 to 533 residues) expressed in Escherichia coli Rosetta2 (DE3) using DNA as substrate after 3 hrs in presence of NAD+
T2 sequence (Q9Y6F1 whole entry): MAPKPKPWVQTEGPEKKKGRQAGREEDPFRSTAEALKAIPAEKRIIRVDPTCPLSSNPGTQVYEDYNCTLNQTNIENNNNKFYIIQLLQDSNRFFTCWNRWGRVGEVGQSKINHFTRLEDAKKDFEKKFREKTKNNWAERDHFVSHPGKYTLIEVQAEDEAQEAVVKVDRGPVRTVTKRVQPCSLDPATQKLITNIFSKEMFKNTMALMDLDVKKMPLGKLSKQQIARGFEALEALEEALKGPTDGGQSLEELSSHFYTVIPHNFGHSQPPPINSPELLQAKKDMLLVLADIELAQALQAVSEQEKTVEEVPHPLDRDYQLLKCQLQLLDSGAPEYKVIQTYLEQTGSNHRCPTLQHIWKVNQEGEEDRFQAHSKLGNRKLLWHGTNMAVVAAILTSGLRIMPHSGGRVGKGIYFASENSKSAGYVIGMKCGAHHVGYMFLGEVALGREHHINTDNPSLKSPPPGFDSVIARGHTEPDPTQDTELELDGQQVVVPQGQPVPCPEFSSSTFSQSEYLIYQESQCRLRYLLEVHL

Poly [ADP-ribose] polymerase 1, sequence (P09874 whole entry, the tested form may be a part): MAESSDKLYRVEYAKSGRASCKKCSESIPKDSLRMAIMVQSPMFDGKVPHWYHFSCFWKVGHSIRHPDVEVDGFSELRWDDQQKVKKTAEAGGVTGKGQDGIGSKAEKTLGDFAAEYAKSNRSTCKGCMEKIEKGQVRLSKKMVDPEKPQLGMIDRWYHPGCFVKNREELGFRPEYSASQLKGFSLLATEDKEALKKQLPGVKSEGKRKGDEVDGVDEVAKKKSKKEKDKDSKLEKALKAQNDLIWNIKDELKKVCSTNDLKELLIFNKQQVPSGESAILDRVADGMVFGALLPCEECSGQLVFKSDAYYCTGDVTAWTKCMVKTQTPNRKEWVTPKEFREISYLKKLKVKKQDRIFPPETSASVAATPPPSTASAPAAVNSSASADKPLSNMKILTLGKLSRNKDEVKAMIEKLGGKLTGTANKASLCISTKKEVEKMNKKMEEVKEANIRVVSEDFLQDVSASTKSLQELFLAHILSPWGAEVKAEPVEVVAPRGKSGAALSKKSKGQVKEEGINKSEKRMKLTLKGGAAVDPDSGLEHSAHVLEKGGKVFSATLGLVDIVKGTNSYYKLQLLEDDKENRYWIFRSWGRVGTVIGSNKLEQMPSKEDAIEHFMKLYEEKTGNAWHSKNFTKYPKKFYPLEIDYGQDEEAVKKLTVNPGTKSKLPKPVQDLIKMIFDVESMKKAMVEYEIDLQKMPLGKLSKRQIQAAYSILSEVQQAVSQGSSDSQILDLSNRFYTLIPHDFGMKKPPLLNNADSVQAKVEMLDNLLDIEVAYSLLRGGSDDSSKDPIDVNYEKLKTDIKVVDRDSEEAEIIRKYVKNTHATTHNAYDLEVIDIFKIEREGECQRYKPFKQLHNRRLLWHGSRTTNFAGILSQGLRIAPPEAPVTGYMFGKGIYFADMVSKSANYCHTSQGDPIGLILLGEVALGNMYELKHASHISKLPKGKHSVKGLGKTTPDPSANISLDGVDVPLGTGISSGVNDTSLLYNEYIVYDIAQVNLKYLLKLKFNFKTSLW

NC(=O)c1ccc(Oc2ccc(C(=O)O)cc2)cc1
IC50 [1]: > 100 µM | ΔTm [2]: 5.21 °C | IC50 [3]: > 100 µM | IC50 [4]: > 100 µM

NC(=O)c1ccc(Oc2ccc(C=O)cc2)cc1
IC50 [1]: > 100 µM | ΔTm [2]: 3.6 °C | IC50 [3]: > 100 µM | IC50 [4]: 86 µM

NC(=O)c1ccc(OCc2ccccc2F)cc1
IC50 [1]: > 100 µM | ΔTm [2]: 4.2 °C | IC50 [3]: > 100 µM | IC50 [4]: > 100 µM

COc1ccc(C(N)=O)cc1
IC50 [1]: 57 µM | ΔTm [2]: 2.76 °C | IC50 [3]: 77 µM | IC50 [4]: > 100 µM
